Source: publication PMC8533149 (Biomolecules, 2021)
Read-outs that look alike come from different tables or passages of the source.

Key:
[1] = system: Telo (DNA, G4) AGGGTTAGGGTTAGGGTTAGGG; experiment: FRET melting; details: 100 mM KCl; 10 mM lithium cacodylate pH 7.4, 0.25% DMSO; 12.5 μM compound, 0.25 μM DNA (50:1)
[2] = system: dsDNA (DNA, duplex) CTATAGCGCGCTATAG; experiment: FRET melting; details: 100 mM KCl; 10 mM lithium cacodylate pH 7.4, 0.25% DMSO; 12.5 μM compound, 0.25 μM DNA (50:1)
[3] = system: Pu39 G4 (G-rich region of the P1 promoter of BCL-2); experiment: FRET melting assay, Pu39; assay type: binding, human; details: 50:1
Procedure: (§1) To evaluate stabilizing properties of the ligands in a complex with oligodeoxyribonucleotides (ODNs) melting with fluorescence registration was used. ODN (0.5 μM) (Table 1), labeled with 6-carboxyfluorescein (FAM) and 6-carboxytetramethylrhodamine (TAMRA) at the 5′- and 3′-end, respectively, were folded in lithium cacodylate buffer (10 mM, pH 7.4) with 100 mM KCl by heating at 95 °C for 5 min and gradually cooling to r.t. GFP chromophore analogs (5 mM solution in DMSO) were diluted with the same buffer to the final concentration of 25 μM and mixed with an equal volume of 0.5 μM ODN solution resulting in a molar ratio of 50:1 (total volume was 50 μL). For the titration experiments molar ratios of 20:1 and 2:1 were used. Samples were analyzed using DTprime qPCR system (DNA-Technology LLC, Moscow, Russia). Fluorescence was registered by detection of FAM emission at 520 nm upon excitation at 495 nm in the temperature range of 30–95 °C with 1 °C/min gradient. Tm was determined using the instrument software and ΔTm was calculated relative to ODN Tm in a buffer solution containing 0.25% (v/v) DMSO. The primary and secondary screening were carried out in singlicate and triplicate, respectively.
(§2) Initially we screened an in-house library of 440 synthetic GFP chromophore analogues for interaction with HIV-1 LTR-III sequence, which modulates HIV-1 promoter activity, using high-throughput screening (HTS) FRET melting assay (Table S1). […] We selected 11 compounds (Figure 2A), displaying stabilization in the range of 2.4–7.8 °C, and evaluated their ability to stabilize other G4-forming sequences, including human telomeric sequence Telo (one of the most common G4 structures in the human genome, having two conformations, Hybrid-1 and Hybrid-2 [36]) and model G4 […] (the G-rich Pu39 region of the P1 promoter of the oncogene BCL-2, an apoptosis regulator [37] with polymorphic conformational structure), as well as double stranded oligonucleotide (duplex) control sequence (Figure 2B, Table S2).

[4] = system: dsDNA (double stranded control sequence); experiment: FRET melting assay, duplex control; assay type: binding; details: 50:1
Procedure: as §1, §2

[5] = system: HIV-1 strain NL4-3 in MT4 cells; experiment: Cytopathic effect inhibition test; assay type: cell-based; details: HIV-1 NL4-3, MT4 cells
Procedure: Human T cell leukemia (MT4) cell line was maintained in RPMI-1640 (“Chumakov FSC R&D IBP RAS”, Moscow, Russia) with 10% of fetal bovine serum (FBS, Invitrogen, Waltham, MA, USA), L-glutamine and gentamicin. Green monkey kidney (Vero, Beach, FL, USA) cell line was maintained in 2 × Eagle MEM (“Chumakov FSC R&D IBP RAS”, Russia) with 5% FBS with L-glutamine, penicillin and streptomycin. Cell cultures were incubated in the present of 5% CO2 at 37 °C. HIV-1 strain NL4-3 was obtained via cell transfection with pNL4-3 3 (ARP2006, NIBSC, Potters Bar, UK).
Eight two-fold dilutions of stock solutions of the compounds in two replicates were prepared in RPMI-1640 (“Chumakov FSC R&D IBP RAS”, Russia). Compound dilutions were mixed with equal volumes of the virus suspension containing 100 CCID50 (50% tissue culture infectious dose). Control cells were treated with the same sequential concentrations of DMSO as in compound dilutions. Then, the MT4 cell suspension (approx. 2 × 10^4 cells per well) in RPMI-1640 containing 10% FBS (Invitrogen, South America) was added to experimental mixtures. A final concentration series started from 25 μM. Each experiment contained virus dose titration in the inoculate to assure the acceptable dose-range. After a nine-day incubation (5% CO2, at 37 °C), cytopathic effect (CPE) was visually accessed via microscope. EC50 values were calculated according to the Karber method. All experimental procedures were performed in two replicates and were repeated two to four times. Mean and SD were calculated with OriginPro 8 (OriginLab, St. Louis, MO, USA).

[6] = system: human telomeric sequence Telo G4; experiment: FRET melting assay, Telo; assay type: binding; details: 50:1
Procedure: as §1, §2

MT4 cells = experiment: Cytotoxicity test; assay type: cell-based; details: Table S12, nine days
Procedure: (§3) Green monkey kidney (Vero, Beach, FL, USA) cell line was maintained in 2 × Eagle MEM (“Chumakov FSC R&D IBP RAS”, Russia) with 5% FBS with L-glutamine, penicillin and streptomycin. […] HIV-1 strain NL4-3 was obtained via cell transfection with pNL4-3 3 (ARP2006, NIBSC, Potters Bar, UK).
(§4) MT4 cell suspensions were added to the wells with compound dilutions and DMSO control (approx. 2 × 10^4 cells per well). […] All experimental procedures were performed in two replicates and were repeated two to four times. Mean and SD were calculated with OriginPro 8 (OriginLab, St. Louis, MO, USA).

Cytotoxicity test = assay type: cell-based; details: human, MT4 cells (human T cell leukemia), Figure 7
Procedure: as §3, §4

[7] = system: HIV-1 LTR-III G-quadruplex (FAM/TAMRA-labeled LTR-III); experiment: FRET melting assay, LTR-III G4; assay type: binding; details: for LTR III stabilization: Figure 7, stabilization group; for LTR-III (average): Table S12, average stabilization
Procedure, shortened: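 Melting is followed by FAM fluorescence (ex 495/em 520 nm) while heating at 1 °C/min from 30 to 95 °C. Labelled ODN at 0.5 μM, pre-annealed in 10 mM Li cacodylate, 100 mM KCl, pH 7.4, mixed with ligand at 50:1 (25 μM), or 20:1 and 2:1 for titration. ΔTm is relative to the 0.25% DMSO buffer control.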

LTR-III G4 = experiment: NMR titration of LTR-III; assay type: binding, HIV-1; details: for interaction with LTR-III by NMR titration (selective signal attenuation): 50 μM LTR-III, 1D 1H NMR
Procedure: All NMR spectra were acquired on a Bruker Avance III 800 MHz spectrometer equipped with a cryoprobe. Titration of 50 μM LTR-III samples (70 mM KCl, 20 mM potassium phosphate buffer, pH 7.0) with 2 mM ZS260.1 and N979 ligands dissolved in DMSO was performed. 1D ^1H NMR spectra were used to track the changes during titration. ^1H-^13C HSQC and HMBC at 35 °C were used to transfer the assignment of H6/C6 and H8/C8 signals from previously obtained assignment. To identify the LTR-III residues that are most influenced by addition of ZS260.1 ligand, the intensities of cross-peaks in the ^1H-^13C HSQC spectra measured with and without added ligand were compared. The H6/C6 and H8/C8 cross-peak intensities were measured at molar ratio of LTR-III to ZS260.1 of 5:1 (35 °C, 0.5 mM LTR-III G4).
The ligand binding processes are probably in intermediate to fast regime on the NMR timescale. Therefore, the resonances of residues that are close to the ligand binding site (s) become broadened and attenuated (intermediate exchange regime).
To determine affinity of the compound ZS260.1 to LTR-III G4 we analyzed changes in H8 chemical shift of G8 residue in 1D ^1H NMR spectra. […] The titration data were successfully approximated by simple chemical reaction A + B = AB, that implies one to one stoichiometry of binding that is consistent with literature data (Suppl. S8). The dissociation constant for the LTR-III/ZS260.1 complex (Kd) was on the order of 3 μM.

[8] = Table S5, newly synthesized compounds
[9] = Human immunodeficiency virus 1, NL43, 216 h, Table S12, CPE, nine-day incubation, read-out: EC50
[10] = Human immunodeficiency virus 1, NL43, Figure 7, read-out: Antiviral activity EC50 (HIV)
[11] = Table S1 primary screening, ligand:ODN 50:1, singlicate
[12] = Table S2, primary screening lead compounds
[13] = Table S12, CPE, nine-day incubation

SMILES | ΔTm [1] | ΔTm [2] | ΔTm Pu39 [3, 8] | ΔTm Duplex [4, 8] | EC50 [5, 9] | EC50 [5, 10] | ΔTm Telo [6, 8] | СС50 (MT4) (MT4 cells) | CC50 at 9 days (Cytotoxicity test) | LTR III stabilization [7] | LTR-III ΔTm ([7]; Table S3 primary screening of newly synthesized analogs, 50:1) | LTR-III (average) [7] | LTR-III ΔTm [7, 11] | LTR-III ΔTm ([7]; Table S1 primary screening, ligand:ODN 50:1, singlicate, listed as N979) | interaction with LTR-III by NMR titration (selective signal attenuation) (LTR-III G4) | ΔTm Pu39 [3, 12] | ΔTm Duplex [4, 12] | EC50 [5, 13] | ΔTm Telo [6, 12] | Kd (LTR-III G4; H8 chemical shift of G8 in 1D 1H NMR, 1:1 binding model, read-out: dissociation constant for the LTR-III/ZS260.1 complex (Kd))
COc1ccc(/C=C/C=C/C2=NC(=C\c3ccc(O)cc3OC)/C(=O)N2C)cc1 | 3.9±0.1 °C | -0.1±0.04 °C |  |  |  |  |  |  |  |  |  |  |  |  |  |  |  |  |  | 
COc1c(O)ccc(/C=C2N=C(/C=C/c3cc(Br)c(O)c(Br)c3)N(C)C\2=O)c1OC [N1199] |  |  | 0±0.2 °C | 0±0.1 °C | 3.3 ± 1.1 µM | 3 ± 1 µM | 0.9±0.1 °C | 4.6 ± 2.5 µM | 5 ± 3 µM | > 3 °C | 4.3 °C | 4,3 °C |  |  |  |  |  |  |  | 
COc1cc(/C=C2\N=C(C)N(C)C2=O)cc(OC)c1O [N 979] |  |  |  |  |  |  |  |  |  |  |  |  | -0.2 °C | non-stabilizing | interact with the LTR-III molecule |  |  |  |  | 
COc1c(O)ccc(/C=C2N=C(/C=C/c3ccncc3)N(C)C\2=O)c1OC [N 1068.2] |  |  |  |  | 1.78 ± 0.38 µM | 1.8 ± 0.4 µM |  | 3.0 ± 1.0 µM | 3 ± 1 µM | > 3 °C |  | 6,9 °C | 7.1 °C |  |  | 0±0.4 °C | 0.1±0.04 °C | micromolar range | 1.2±0.2 °C | 
COc1cc(/C=C2N=C(/C=C/c3cc(Br)c(O)c(Br)c3)N(C)C\2=O)cc(OC)c1O [ZS 260.1] | 0.7±0.2 °C | 0.1±0.09 °C |  |  | 3.78 ± 0.91 µM | 3.8 ± 0.9 µM |  | 4.1 ± 0.6 µM | 4.1 ± 0.6 µM | > 3 °C |  | 8,35 °C | 7.8 °C |  | interact with the LTR-III molecule | 0.9±0.6 °C | 0.1±0.09 °C | micromolar range | 0.7±0.2 °C | ~3 µM
